Source: patent US20260158177A1, “COMPOUNDS SPECIFIC TO GRANZYME B AND USES THEREOF” (CYTOSITE BIOPHARMA INC., priority 2021, published 2026)
Numbered stars: 1 amine (or outer) side, 2 acyl side, 3 side chain; on linkers, the order of the positions; unused ones are H or OH. Square brackets hold non-standard residues; d marks the D form. Peptide text beside a SMILES is read from it. * marks the point of attachment. NOTA(AlF) = O=C1CN2CCN(CCN(CC(=O)*)CC2)CC(=O)[O][Al]([F])[O]1; Haic = O=C1[C@@H](N[*:1])CCc2cccc3c2N1[C@H](C(=O)[*:2])C3; NH(5-HO-2-oxo-oxolan-4-yl) = O=C1CC(N*)C(O)O1; X1 = O=C(CN1CCN([*:1])CC1)[*:2]

Molecular target: T1, human granzyme B (Homo sapiens, UniProt P10144)
T1 construct: from tissue; host or cells: human lymphocytes
T1 sequence (P10144 21-247): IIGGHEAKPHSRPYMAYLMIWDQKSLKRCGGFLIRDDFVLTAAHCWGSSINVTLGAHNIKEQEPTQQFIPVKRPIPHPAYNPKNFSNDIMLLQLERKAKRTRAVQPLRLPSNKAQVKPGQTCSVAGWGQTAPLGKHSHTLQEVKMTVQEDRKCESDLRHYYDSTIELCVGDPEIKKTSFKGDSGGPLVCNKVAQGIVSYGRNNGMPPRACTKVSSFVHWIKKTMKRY
Assay: Competitive binding assay of human granzyme B with Compound ^18F-21-Al radioligand
Settings: competition with 20 nM Compound ^18F-21-Al, human lymphocyte GZB, 37° C., 90 minutes
Procedure: Purpose: To perform competitive binding assays with human granzyme B using Compound ^18F-21-Al to determine IC50 values of potential granzyme B ligands
Initial Plate Preparation (including total binding and non-specific binding): • 1. 78 μL of reaction buffer, as described above, is added to each well in a 96 well plate • 2. For wells used to examine total binding (defined as the binding of the radioligand in the absence of competitors), 2 μL of DMSO is added to give 1% final DMSO concentration for all wells • 3. For wells used to examine non-specific binding (defined as the binding of the radioligand in the presence of 10 μM 21), 2 μL of 1 mM Compound 21 is added to give a final concentration of 10 μM
• 1. Granzyme B (GZB, human lymphocyte) is diluted to 0.5 μg/mL using reaction buffer as described above • 2. 100 μL of 0.5 μg/mL diluted human GzB is added to each well, giving 50 ng per well and a final concentration of 0.25 μg/mL
• 1. DMSO or water is added to the respective compound vial to make 1 mM compound stock solution • 2. 1 mM compound stock solution is serially diluted by ½ log (3.16 fold) by adding 18.5 μL of compound stock to 40 μL of DMSO, mixing by pipetting up and down, and transferring 18.5 μL of the mixture to 40 μL of DMSO. This process is repeated to create 10 dilution points for test compounds. • 3. For wells used to examine ligand binding competition, 2 μL of each dilution is dispensed into the 96 well plates prepared as described above, giving a further dilution of 1/100.
• 1. 200 nM of Compound ^18F-21-Al (10× radioligand stock) is prepared in reaction buffer, aiming for approximately 2 million CPM per 20 μL of solution (input). • 2. 20 μL of radioligand stock is dispensed into each well to give a final concentration per well of 20 nM.
• 1. All 96 wells should have a final volume of 200 μL, and the assay plates are incubated at 37° C. for 90 minutes. • 2. All samples from the assay plates are transferred to MultiScreenHTS FB plates that have been presoaked in PBS buffer, pH 7.4, and filtered using a vacuum manifold. An additional 150 μL of PBS buffer is added to each well in the assay plates and combined to ensure transfer of any remaining samples • 3. MultiScreenHTS FB plates are washed 3× with 150 μL of PBS buffer. • 4. All filters are separated and transferred to individual tubes using Multiscreen punch tips and the Millipore multiple punch apparatus • 5. The sample set is analyzed using the Wizard 2480 automatic gamma-counter [Perkin Elmer] through a [^18F]-specific profile. Values are reported as decay-corrected counts per minute (CPM). • 6. Resulting CPM values are normalized and converted to % inhibition by the following equation:
[formula] • *the total bound fraction is typically less than 10% of the added radioligand under such assay conditions. • Resulting % inhibition values were plotted using the software GraphPad Prism 8.4.3 using the One site—Fit log IC50 equation to determine the IC50 value for each ligand.
[formula] • Y=% Inhibition • X=Log concentration of the cold competing ligand (M) • A=minimum Y (0%) • B=maximum Y (100%) • Log IC50=Log concentration of cold competing ligand (M) at half-way between minimum and maximum Y

| Structure (SMILES) | IC50 [nM] |
| --- | --- |
| CC[C@H](C)[C@H](NC(=O)CNC(=O)CNC(=O)[C@H](CCC(=O)O)NC(=O)CN1CCN(C(=O)CN2CCN3CCN(CC2)CC(=O)[O][Al]([F])[O]C(=O)C3)CC1)C(=O)N[C@H]1CCc2cccc3c2N(C1=O)[C@H](C(=O)NC1CC(=O)OC1O)C3 (stereo partly drawn) [Compound 8-Al, 2,2′-(7-(2-(4-((4S,13S,14S)-4-(2-carboxyethyl)-13-(((3S,6S)-6-((2-hydroxy-5-oxotetrahydrofuran-3-yl)carbamoyl)-4-oxo-1,2,3,4,6,7-hexahydroazepino[3,2,1-hi]indol-3-yl)carbamoyl)-14-methyl-2,5,8,11-tetraoxo-3,6,9,12-tetraazahexadecyl)piperazin-1-yl)-2-oxoethyl)-1,4,7-triazonane-1,4-diyl)diacetic acid, aluminum fluoride complex (1:1)] ({NOTA(AlF)}-[X1]EGGI[Haic]-{NH(5-HO-2-oxo-oxolan-4-yl)}) | 6.5 |
| CC[C@H](C)[C@H](NC(=O)CCNC(=O)CCNC(=O)[C@@H](CCC(=O)O)NC(=O)CN1CCC(CN2CCN3CCN(CC2)CC(=O)[O][Al]([F])[O]C(=O)C3)CC1)C(=O)N[C@H]1CCc2cccc3c2N(C1=O)[C@H](C(=O)NC1CC(=O)OC1O)C3 (stereo partly drawn) [Compound 1-Al, 2,2′-(7-((1-((4R,15S,16S)-4-(2-carboxyethyl)-15-(((3S,6S)-6-((2-hydroxy-5-oxotetrahydrofuran-3-yl)carbamoyl)-4-oxo-1,2,3,4,6,7-hexahydroazepino[3,2,1-hi]indol-3-yl)carbamoyl)-16-methyl-2,5,9,13-tetraoxo-3,6,10,14-tetraazaoctadecyl)piperidin-4-yl)methyl)-1,4,7-triazonane-1,4-diyl)diacetic acid, aluminum fluoride complex (1:1)] | 5.7 |
| CC[C@H](C)[C@H](NC(=O)CCNC(=O)CN(CC(=O)O)C(=O)CCNC(=O)CN1CCC(CN2CCN3CCN(CC2)CC(=O)[O][Al]([F])[O]C(=O)C3)CC1)C(=O)N[C@H]1CCc2cccc3c2N(C1=O)[C@H](C(=O)NC1CC(=O)OC1O)C3 (stereo partly drawn) [Compound 3-Al, 2,2′-(7-((1-((15S,16S)-7-(carboxymethyl)-15-(((3S,6S)-6-((2-hydroxy-5-oxotetrahydrofuran-3-yl)carbamoyl)-4-oxo-1,2,3,4,6,7-hexahydroazepino[3,2,1-hi]indol-3-yl)carbamoyl)-16-methyl-2,6,9,13-tetraoxo-3,7,10,14-tetraazaoctadecyl)piperidin-4-yl)methyl)-1,4,7-triazonane-1,4-diyl)diacetic acid, aluminum fluoride complex (1:1)] | 4.7 |
| CC[C@H](C)[C@H](NC(=O)CCNC(=O)CCNC(=O)CN(CC(=O)O)C(=O)CN1CCN(C(=O)CN2CCN3CCN(CC2)CC(=O)[O][Al]([F])[O]C(=O)C3)CC1)C(=O)N[C@H]1CCc2cccc3c2N(C1=O)[C@H](C(=O)NC1CC(=O)OC1O)C3 (stereo partly drawn) [Compound 13-Al, 2,2′-(7-(2-(4-((15S,16S)-3-(carboxymethyl)-15-(((3S,6S)-6-((2-hydroxy-5-oxotetrahydrofuran-3-yl)carbamoyl)-4-oxo-1,2,3,4,6,7-hexahydroazepino[3,2,1-hi]indol-3-yl)carbamoyl)-16-methyl-2,5,9,13-tetraoxo-3,6,10,14-tetraazaoctadecyl)piperazin-1-yl)-2-oxoethyl)-1,4,7-triazonane-1,4-diyl)diacetic acid, aluminum fluoride complex (1:1)] | 4.2 |
| CC[C@H](C)[C@H](NC(=O)CC[C@H](NC(=O)CN1CCN(C(=O)CN2CCN3CCN(CC2)CC(=O)[O][Al]([F])[O]C(=O)C3)CC1)C(=O)O)C(=O)N[C@H]1CCc2cccc3c2N(C1=O)[C@H](C(=O)NC1CC(=O)OC1O)C3 (stereo partly drawn) [Compound 17-Al, 2,2′-(7-(2-(4-(2-(((1S)-1-carboxy-4-(((2S,3S)-1-(((3S,6S)-6-((2-hydroxy-5-oxotetrahydrofuran-3-yl)carbamoyl)-4-oxo-1,2,3,4,6,7-hexahydroazepino[3,2,1-hi]indol-3-yl)amino)-3-methyl-1-oxopentan-2-yl)amino)-4-oxobutyl)amino)-2-oxoethyl)piperazin-1-yl)-2-oxoethyl)-1,4,7-triazonane-1,4-diyl)diacetic acid, aluminum fluoride complex (1:1)] | 2.7 |
| CC[C@H](C)[C@H](NC(=O)CCNC(=O)CCNC(=O)[C@@H](CCC(=O)O)NC(=O)CN1CCN(C(=O)CN2CCN3CCN(CC2)CC(=O)[O][Al]([F])[O]C(=O)C3)CC1)C(=O)N[C@H]1CCc2cccc3c2N(C1=O)[C@H](C(=O)NC1CC(=O)OC1O)C3 (stereo partly drawn) [Compound 12-Al, 2,2′-(7-(2-(4-((4R,15S,16S)-4-(2-carboxyethyl)-15-(((3S,6S)-6-((2-hydroxy-5-oxotetrahydrofuran-3-yl)carbamoyl)-4-oxo-1,2,3,4,6,7-hexahydroazepino[3,2,1-hi]indol-3-yl)carbamoyl)-16-methyl-2,5,9,13-tetraoxo-3,6,10,14-tetraazaoctadecyl)piperazin-1-yl)-2-oxoethyl)-1,4,7-triazonane-1,4-diyl)diacetic acid, aluminum fluoride complex (1:1)] | 4.2 |
| CC[C@H](C)[C@H](NC(=O)CCNC(=O)CCNC(=O)CN(CC(=O)O)C(=O)CN1CCC(CN2CCN3CCN(CC2)CC(=O)[O][Al]([F])[O]C(=O)C3)CC1)C(=O)N[C@H]1CCc2cccc3c2N(C1=O)[C@H](C(=O)NC1CC(=O)OC1O)C3 (stereo partly drawn) [Compound 5-Al, 2,2′-(7-((1-((15S,16S)-3-(carboxymethyl)-15-(((3S,6S)-6-((2-hydroxy-5-oxotetrahydrofuran-3-yl)carbamoyl)-4-oxo-1,2,3,4,6,7-hexahydroazepino[3,2,1-hi]indol-3-yl)carbamoyl)-16-methyl-2,5,9,13-tetraoxo-3,6,10,14-tetraazaoctadecyl)piperidin-4-yl)methyl)-1,4,7-triazonane-1,4-diyl)diacetic acid, aluminum fluoride complex (1:1)] | 5.7 |
| CC[C@H](C)[C@H](NC(=O)CCNC(=O)[C@@H](CCC(=O)O)NC(=O)CCNC(=O)CN1CCC(CN2CCN3CCN(CC2)CC(=O)[O][Al]([F])[O]C(=O)C3)CC1)C(=O)N[C@H]1CCc2cccc3c2N(C1=O)[C@H](C(=O)NC1CC(=O)OC1O)C3 (stereo partly drawn) [Compound 7-Al, 2,2′-(7-((1-((8R,15S,16S)-8-(2-carboxyethyl)-15-(((3S,6S)-6-((2-hydroxy-5-oxotetrahydrofuran-3-yl)carbamoyl)-4-oxo-1,2,3,4,6,7-hexahydroazepino[3,2,1-hi]indol-3-yl)carbamoyl)-16-methyl-2,6,9,13-tetraoxo-3,7,10,14-tetraazaoctadecyl)piperidin-4-yl)methyl)-1,4,7-triazonane-1,4-diyl)diacetic acid, aluminum fluoride complex (1:1)] | 6.7 |
